# Measured values taken from patent US11377442B2, “Small molecule agonists and antagonists of NR2F6 activity” (ZANDER THERAPEUTICS, INC., priority 2016, dated 2022).
# Like-named read-outs stand apart in the source and are kept apart here.
# How the values were obtained:
# Format in all cases: cell-based
# [1] = target: T1, NR2F6 (Homo sapiens, UniProt P10588); test: NR2F6 agonist screening, Firefly signal cmpd/DMSO
# T1 construct: expressed in transfected cells; also transient transfection
# T1 sequence (P10588 1-404): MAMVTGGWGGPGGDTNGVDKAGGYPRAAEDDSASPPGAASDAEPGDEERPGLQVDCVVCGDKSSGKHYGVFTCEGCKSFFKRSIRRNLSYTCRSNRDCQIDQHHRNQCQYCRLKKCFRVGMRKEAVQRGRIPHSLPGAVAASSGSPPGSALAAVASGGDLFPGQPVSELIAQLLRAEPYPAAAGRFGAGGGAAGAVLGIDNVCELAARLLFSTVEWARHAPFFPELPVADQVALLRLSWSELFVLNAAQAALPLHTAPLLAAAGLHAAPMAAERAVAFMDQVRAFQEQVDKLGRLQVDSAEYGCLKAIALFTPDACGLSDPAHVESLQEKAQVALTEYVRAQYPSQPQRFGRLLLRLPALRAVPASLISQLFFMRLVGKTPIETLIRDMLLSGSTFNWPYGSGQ
# [2] = tested on: Renilla; test: Renilla signal in NR2F6 agonist screening, cmpd/DMSO; conditions: Renilla, F4
# [3] = tested on: HEK293 pGL4; test: Firefly_pGL signal, cmpd/DMSO (pGL4 control cells); conditions: Homo sapiens
# [4] = target: T2, NR2F6 LBD (Homo sapiens, UniProt P10588); test: NR2F6 LBD transient transfection; conditions: LBD
# T2 construct: expressed in transfected cells
# T2 sequence (P10588 165-393 limits assumed): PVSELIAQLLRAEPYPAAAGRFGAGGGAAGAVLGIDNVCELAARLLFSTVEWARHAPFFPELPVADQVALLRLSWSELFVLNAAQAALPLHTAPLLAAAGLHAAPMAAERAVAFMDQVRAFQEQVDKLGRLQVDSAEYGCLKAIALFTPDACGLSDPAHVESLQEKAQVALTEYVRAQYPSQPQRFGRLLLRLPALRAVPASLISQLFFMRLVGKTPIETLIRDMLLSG
# Procedure: FIGS. 27A and 27B show NR2F6 and LBD transient transfection, respectively, for Compound D28. Higher concentrations were excluded due to lower signal (tox effect). FIGS. 27C and 27D show NR2F6 and LBD transient transfection at different concentrations for different compounds. 9 compounds were tested on LBD transfected cells (40, 10, 2 and 0.5 μM, 4 replicates). FIGS. 27E and 27F show toxicity of Compound D28. 9 compounds were tested for cytotoxicity on LBD transfected cells (40, 10, 2 and 0.5 μM, 4 replicates). […] Cytotoxicity normalized to DMSO is shown in FIG. 27F (0% cytotoxicity corresponds to DMSO signal, 100%—zero signal).
# FIGS. 34A and 34B show NR2F6 LBD transient transfection for Compound E21. 9 compounds were tested on LBD transfected cells (40, 10, 2 and 0.5 μM, 4 replicates). FIGS. 34C and 34D show NR2F6 and LBD transient transfection at different concentrations for different compounds. 9 compounds were tested on LBD transfected cells (40, 10, 2 and 0.5 μM, 4 replicates). […] Cytotoxicity normalized to DMSO is shown in FIG. 34D (0% cytotoxicity corresponds to DMSO signal, 100%—zero signal). All compounds were tested at 5, 10, 25 and 50 uM in duplicates. Dog PBMC (1×10^6 cells/mL) were activated by 10 ng/mL PMA+500 ng/mL ionomycin. Data were normalized to controls with (100%)/without (0%) PMA+ionomycin activation.
# FIGS. 39A and 39B show NR2F6 LBD transient transfection for Compound F1. 9 compounds were tested on LBD transfected cells (40, 10, 2 and 0.5 μM, 4 replicates). FIGS. 39C and 39D show toxicity of NR2F6 LBD transient transfection. 9 compounds were tested for cytotoxicity on LBD transfected cells (40, 10, 2 and 0.5 μM, 4 replicates). Tox effect causes lower signal compared to DMSO. Cytotoxicity normalized to DMSO is shown in FIG. 39D (0% cytotoxicity corresponds to DMSO signal, 100%—zero signal).
# [5] = read-out: Renilla, F4, cmpd/DMSO (mean)
# [6] = 1% FBS, read-out: Renilla, F4, 1% FBS, cmpd/DMSO (mean)
# [7] = 10% FBS, read-out: Renilla, F4, 10% FBS, cmpd/DMSO (mean)
# [8] = HEK293, 0.5 uM, pGL4, read-out: Firefly pGL4, cmpd/DMSO (mean)
# [9] = HEK293, 2 uM, pGL4, read-out: Firefly pGL4, cmpd/DMSO (mean)
# [10] = HEK293, 10 uM, pGL4, read-out: Firefly pGL4, cmpd/DMSO (mean)
# [11] = HEK293, 40 uM, pGL4, read-out: Firefly pGL4, cmpd/DMSO (mean)
# [12] = HEK293, pGL4, 1% FBS, 0.5 uM, read-out: Firefly, pGL4, 1% FBS, cmpd/DMSO (mean)
# [13] = HEK293, pGL4, 1% FBS, 2 uM, read-out: Firefly, pGL4, 1% FBS, cmpd/DMSO (mean)
# [14] = HEK293, pGL4, 1% FBS, 10 uM, read-out: Firefly, pGL4, 1% FBS, cmpd/DMSO (mean)
# [15] = HEK293, pGL4, 1% FBS, 40 uM, read-out: Firefly, pGL4, 1% FBS, cmpd/DMSO (mean)
# [16] = HEK293, pGL4, 10% FBS, 0.5 uM, read-out: Firefly, pGL4, 10% FBS, cmpd/DMSO (mean)
# [17] = HEK293, pGL4, 10% FBS, 2 uM, read-out: Firefly, pGL4, 10% FBS, cmpd/DMSO (mean)
# [18] = HEK293, pGL4, 10% FBS, 10 uM, read-out: Firefly, pGL4, 10% FBS, cmpd/DMSO (mean)
# [19] = HEK293, pGL4, 10% FBS, 40 uM, read-out: Firefly, pGL4, 10% FBS, cmpd/DMSO (mean)
structure (smiles),measurement,setting,value
CC(C)CCN[C@H]1CS(=O)(=O)C[C@@H]1S(=O)(=O)c1cccs1 [Compound D110],"Firefly F4, cmpd/DMSO (mean)",[1]; 0.5 uM,1.7
same,"Firefly F4, cmpd/DMSO (mean)",[1]; 2 uM,1.9
same,"Firefly F4, cmpd/DMSO (mean)",[1]; 10 uM,3.5
same,"Firefly F4, cmpd/DMSO (mean)",[1]; 40 uM,1.4
same,"F4, Firefly/Renilla for S/B(F4) > 3","[1]; 1% FBS, 10 uM",2.5
same,"Firefly, F4/pGL4 for S/B(F4) > 3","[1]; 1% FBS, 10 uM",2.3
same,"F4, Firefly/Renilla for S/B(F4) > 3","[1]; 10% FBS, 40 uM",2.5
same,"Firefly, F4/pGL4 for S/B(F4) > 3","[1]; 10% FBS, 40 uM",2.3
same,"Firefly, F4, 1% FBS, cmpd/DMSO (mean)","[1]; 1% FBS, 0.5 uM",0.8
same,"Firefly, F4, 1% FBS, cmpd/DMSO (mean)","[1]; 1% FBS, 2 uM",1.4
same,"Firefly, F4, 1% FBS, cmpd/DMSO (mean)","[1]; 1% FBS, 10 uM",3.8
same,"Firefly, F4, 1% FBS, cmpd/DMSO (mean)","[1]; 1% FBS, 40 uM",0.8
same,"Firefly, F4, 10% FBS, cmpd/DMSO (mean)","[1]; 10% FBS, 0.5 uM",1.3
same,"Firefly, F4, 10% FBS, cmpd/DMSO (mean)","[1]; 10% FBS, 2 uM",1.0
same,"Firefly, F4, 10% FBS, cmpd/DMSO (mean)","[1]; 10% FBS, 10 uM",2.4
same,"Firefly, F4, 10% FBS, cmpd/DMSO (mean)","[1]; 10% FBS, 40 uM",5.9
same,fold induction at 0.5 µM,[2]; [5],1.1
same,fold induction at 2 µM,[2]; [5],1.1
same,fold induction at 10 µM,[2]; [5],1.3
same,fold induction at 40 µM,[2]; [5],1.4
same,fold induction at 0.5 µM,[2]; [6],1
same,fold induction at 2 µM,[2]; [6],1.1
same,fold induction at 10 µM,[2]; [6],1.5
same,fold induction at 40 µM,[2]; [6],1.5
same,fold induction at 0.5 µM,[2]; [7],1
same,fold induction at 2 µM,[2]; [7],1
same,fold induction at 10 µM,[2]; [7],1.5
same,fold induction at 40 µM,[2]; [7],2.4
same,fold induction at 0.5 µM,[3]; [8],1.2
same,fold induction at 2 µM,[3]; [9],1.4
same,fold induction at 10 µM,[3]; [10],3.3
same,fold induction at 40 µM,[3]; [11],0.7
same,fold induction at 0.5 µM,[3]; [12],1
same,fold induction at 2 µM,[3]; [13],1.2
same,fold induction at 10 µM,[3]; [14],1.7
same,fold induction at 40 µM,[3]; [15],0.8
same,fold induction at 0.5 µM,[3]; [16],1.2
same,fold induction at 2 µM,[3]; [17],1.2
same,fold induction at 10 µM,[3]; [18],1.8
same,fold induction at 40 µM,[3]; [19],2.6
same,"Firefly LBD, cmpd/DMSO (mean)",[4]; 0.5 uM,1.1
same,"Firefly LBD, cmpd/DMSO (mean)",[4]; 2 uM,1.4
same,"Firefly LBD, cmpd/DMSO (mean)",[4]; 10 uM,3.0
same,"Firefly LBD, cmpd/DMSO (mean)",[4]; 40 uM,0.8
O=S1(=O)C[C@H](NC2CCCCC2)[C@@H](S(=O)(=O)c2ccccc2)C1 [Compound D111],"Firefly F4, cmpd/DMSO (mean)",[1]; 0.5 uM,1.1
same,"Firefly F4, cmpd/DMSO (mean)",[1]; 2 uM,1.1
same,"Firefly F4, cmpd/DMSO (mean)",[1]; 10 uM,2.0
same,"Firefly F4, cmpd/DMSO (mean)",[1]; 40 uM,2.7
same,"F4, Firefly/Renilla for S/B(F4) > 3","[1]; 10% FBS, 40 uM",2.0
same,"Firefly, F4/pGL4 for S/B(F4) > 3","[1]; 10% FBS, 40 uM",2.7
same,"Firefly, F4, 1% FBS, cmpd/DMSO (mean)","[1]; 1% FBS, 0.5 uM",1.0
same,"Firefly, F4, 1% FBS, cmpd/DMSO (mean)","[1]; 1% FBS, 2 uM",1.1
same,"Firefly, F4, 1% FBS, cmpd/DMSO (mean)","[1]; 1% FBS, 10 uM",1.6
same,"Firefly, F4, 1% FBS, cmpd/DMSO (mean)","[1]; 1% FBS, 40 uM",2.1
same,"Firefly, F4, 10% FBS, cmpd/DMSO (mean)","[1]; 10% FBS, 0.5 uM",1.6
same,"Firefly, F4, 10% FBS, cmpd/DMSO (mean)","[1]; 10% FBS, 2 uM",1.6
same,"Firefly, F4, 10% FBS, cmpd/DMSO (mean)","[1]; 10% FBS, 10 uM",1.1
same,"Firefly, F4, 10% FBS, cmpd/DMSO (mean)","[1]; 10% FBS, 40 uM",3.6
same,fold induction at 0.5 µM,[2]; [5],1
same,fold induction at 2 µM,[2]; [5],1
same,fold induction at 10 µM,[2]; [5],1.1
same,fold induction at 40 µM,[2]; [5],1.4
same,fold induction at 0.5 µM,[2]; [6],1.1
same,fold induction at 2 µM,[2]; [6],1.1
same,fold induction at 10 µM,[2]; [6],1.3
same,fold induction at 40 µM,[2]; [6],1.7
same,fold induction at 0.5 µM,[2]; [7],1.1
same,fold induction at 2 µM,[2]; [7],1.1
same,fold induction at 10 µM,[2]; [7],1.2
same,fold induction at 40 µM,[2]; [7],1.8
same,fold induction at 0.5 µM,[3]; [8],0.9
same,fold induction at 2 µM,[3]; [9],1.4
same,fold induction at 10 µM,[3]; [10],1.5
same,fold induction at 40 µM,[3]; [11],1.8
same,fold induction at 0.5 µM,[3]; [12],1
same,fold induction at 2 µM,[3]; [13],1.2
same,fold induction at 10 µM,[3]; [14],1.2
same,fold induction at 40 µM,[3]; [15],1.2
same,fold induction at 0.5 µM,[3]; [16],1.2
same,fold induction at 2 µM,[3]; [17],1.2
same,fold induction at 10 µM,[3]; [18],1.3
same,fold induction at 40 µM,[3]; [19],1.3
same,"Firefly LBD, cmpd/DMSO (mean)",[4]; 0.5 uM,1.1
same,"Firefly LBD, cmpd/DMSO (mean)",[4]; 2 uM,1.4
same,"Firefly LBD, cmpd/DMSO (mean)",[4]; 10 uM,1.6
same,"Firefly LBD, cmpd/DMSO (mean)",[4]; 40 uM,1.9
